# From patent US20150231190A1, “COMPOSITIONS COMPRISING SIRAITIA GROSVENORI EXTRACTS AND METHODS FOR THE TREATMENT OF INFECTION” (Cascade Estates Limited, priority 2007, published 2015)
# Columns and labels:
# HIV-1 strain IIIB = assay: HIV-1 p24 antigen capture ELISA antiviral assay in H9 cells; type: cell-based; settings: for % Positive Control (HIV-1 p24): 7 days
# Source text: (§1) H9 cells were used as host cells for the virus. H9 is a human T cell clone selected for high yield permissive growth of HIV-1, cloned from Hut 78, a human T cell lymphoma cell line with an inducer/helper phenotype derived from the peripheral blood of a patient with Sezary Syndrome.
# The virus used was HIV-1, Strain IIIB, Catalog No 10-124-000, Lot No. 6M0008-DP.
# A titration was run on the virus under the assay conditions without the experimental compounds to determine the viral inoculum for the antiviral assay, that is the lowest multiplicity of infection (MOI) that will infect all positive control cultures. The inoculum was approximately seven times the TCID50/mL of the stock virus.
# 1 mL cultures were plated with approximately 2.5×10^5 cells per culture. Four replicates were run for each assay condition.
# The virus was absorbed onto the host cells in the presence of a reduced volume of culture medium for 2 hours. The inoculum was then washed off the cells with phosphate buffered saline. […] The growth medium used was RPMI 1640 with 10% fetal bovine serum and 50 μg/mL gentamicin.
# The assay was run for 7 days and re-fed media with appropriate compound concentrations at 4 days.
# The amount of virus proliferation was measured using an HIV-1 p24 antigen capture ELISA. At 7 days, supernatants were harvested and frozen. Supernatants were thawed and diluted as necessary, and the HIV-1 p24 ELISA assay was run. Excess supernatant was refrozen and held for 3 months. The HIV-1 p24 […] of replicate cultures were averaged and presented as a percentage of the positive control.
# An inhibition index of zero indicated no efficacy. The closer to 1 the inhibition index was, the greater the efficacy.
# H9 cells = assay: Cytotoxicity control by microscopic inspection of cells; settings: for Cytotoxicity (Appearance of cells): no virus
# Source text: as §1
# Cytotoxicity was judged from the microscopic inspection of the cells.
# [1] = system: Bovine Viral Diarrhoea Virus (BVDV), strain NADL; assay: Antiviral fluorometric cytoproliferation assay against BVDV in BT turbinate cells; type: cell-based; settings: fluvastatin alone 0.3125 μg/mL
# Method: The Luo Han Guo extract was tested independently at a wide range of concentrations. The extract was tested in two assays, one at 100, 50, 25, 12.5 and 6.25 μg/mL and the other at 3600, 1200, 400, 133.3 and 44.4 μg/mL.
# Bos taurus (BT) turbinate cells were used as host cells for the virus. After the cells were plated and allowed to grow overnight, The extract was added and then the virus was inoculated into the cultures. The cultures were allowed to grow for 7 days and then a fluorometric cytoproliferation assay was run. The data from all replicate cultures was averaged and compared to the growth of the negative controls (no virus or extract). The extract was present during absorption and in the media for the duration of the assays. A titration was run on the virus under the assay conditions but without the extract to determine the optimal viral inoculum for the antiviral assay. A dilution of 10^−4 of the stock virus was determined to be the correct inoculum for the antiviral assays. The growth medium used was Dulbecco's Minimum Eagle's Medium and 10% filtered horse serum. […]
# The inhibition index was calculated as one minus the ratio of the average fluorescent units of the positive control to the average fluorescent units of infected cultures with a particular concentration of extract (1−(average positive control+average with extract)). […]
# [2] = Water solubility (stated); type: physicochemical
SMILES,Concentration most effective against HIV-1 (HIV-1 strain IIIB) [µg/mL],Efficacy (HIV-1 strain IIIB; Mogroside V 2 μg/mL),% Positive Control (HIV-1 p24) (HIV-1 strain IIIB; Mogroside V 2 μg/mL) [%],Effectiveness at suppressing HIV-1 replication (HIV-1 strain IIIB; Mogroside V 6 μg/mL) [%],Efficacy (HIV-1 strain IIIB; Mogroside V 6 μg/mL),% Positive Control (HIV-1 p24) (HIV-1 strain IIIB; Mogroside V 6 μg/mL) [%],Efficacy (HIV-1 strain IIIB; Mogroside V 12 μg/mL),% Positive Control (HIV-1 p24) (HIV-1 strain IIIB; Mogroside V 12 μg/mL) [%],Efficacy (HIV-1 strain IIIB; Mogroside V 36 μg/mL),% Positive Control (HIV-1 p24) (HIV-1 strain IIIB; Mogroside V 36 μg/mL) [%],Efficacy (HIV-1 strain IIIB; Mogroside V 100 μg/mL),% Positive Control (HIV-1 p24) (HIV-1 strain IIIB; Mogroside V 100 μg/mL) [%],Cytotoxicity (Appearance of cells) (H9 cells; Mogroside V 2 μg/mL),Cytotoxicity (Appearance of cells) (H9 cells; Mogroside V 6 μg/mL),Cytotoxicity (Appearance of cells) (H9 cells; Mogroside V 12 μg/mL),Cytotoxicity (Appearance of cells) (H9 cells; Mogroside V 36 μg/mL),Cytotoxicity (Appearance of cells) (H9 cells; Mogroside V 100 μg/mL),"Cytotoxicity, as determined by microscopic inspection (H9 cells; entire range of concentrations used (2 to 100 μg/mL))",Antiviral activity against BVDV [1],Water solubility [2]
"C[C@H](CC[C@@H](O[C@@H]1O[C@H](CO[C@@H]2O[C@H](CO)[C@@H](O)[C@H](O)[C@H]2O)[C@@H](O)[C@H](O)[C@H]1O[C@@H]1O[C@H](CO)[C@@H](O)[C@H](O)[C@H]1O)C(C)(C)O)[C@H]1CC[C@@]2(C)[C@@H]3CC=C4[C@@H](CC[C@H](O[C@@H]5O[C@H](CO[C@@H]6O[C@H](CO)[C@@H](O)[C@H](O)[C@H]6O)[C@@H](O)[C@H](O)[C@H]5O)C4(C)C)[C@]3(C)[C@H](O)C[C@]12C [Mogroside V, mogroside V]",6,Partial (partially efficacious if cultures had an inhibition index between 0.20 and 0.89),48,~80,Partial (partially efficacious if cultures had an inhibition index between 0.20 and 0.89),21,Partial (partially efficacious if cultures had an inhibition index between 0.20 and 0.89),34,Partial (partially efficacious if cultures had an inhibition index between 0.20 and 0.89),59,None (as having no efficacy if cultures had an inhibition index of less than 0.20),88,Normal,Normal,Normal,Normal,Normal,no cytotoxicity,,
"CC(C)n1c(/C=C/[C@H](O)C[C@H](O)CC(=O)O)c(-c2ccc(F)cc2)c2ccccc21 (racemic) [fluvastatin, 7-[3-(4-fluorophenyl)-1-(1-methylethyl)-1H-indol-2-yl]-3,5-dihydroxy-hept-6-enoic acid]",,,,,,,,,,,,,,,,,,,no antiviral activity,water soluble
